Data reported in PubChem BioAssay AID330 (DTP/NCI, 2004).
Values joined by “and” are separate entries in the source; they are usually repeats but may differ in a detail not shown here. Equal entries are not always repeated. Inconclusive results and toxic doses are left out.

Test system: P388 leukemia ip, CD2F1 mice, survival T/C
Assay: NCI In Vivo Anticancer Drug Screen. Data for tumor model P388 Leukemia (intraperitoneal) in CD2F1 (CDF1) mice
Conditions: endpoint: median survival time, higher = longer survival
Summary of the method: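 Mice carrying the transplanted tumor received test compound or vehicle. Survival was recorded in each group, and the value is the treated-group measurement divided by that of the vehicle-treated control group.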

[1] = dose: 50.0 mg/kg/injection, schedule: Q01DX005 (ip), vehicle: saline with Tween-80
[2] = dose: 100.0 mg/kg/injection, schedule: Q01DX005 (ip), vehicle: saline with Tween-80
[3] = dose: 200.0 mg/kg/injection, schedule: Q01DX005 (ip), vehicle: saline with Tween-80
[4] = dose: 50.0 mg/kg/injection, schedule: Q01DX009 (ip), vehicle: Klucel (hydroxypropylcellulose) (HPC)
[5] = dose: 100.0 mg/kg/injection, schedule: Q01DX009 (ip), vehicle: Klucel (hydroxypropylcellulose) (HPC)
[6] = dose: 200.0 mg/kg/injection, schedule: Q01DX009 (ip), vehicle: Klucel (hydroxypropylcellulose) (HPC)
[7] = dose: 50.0 mg/kg/injection, schedule: Q01DX009 (ip), vehicle: saline
[8] = dose: 100.0 mg/kg/injection, schedule: Q01DX009 (ip), vehicle: saline
[9] = dose: 200.0 mg/kg/injection, schedule: Q01DX009 (ip), vehicle: saline
[10] = dose: 100.0 mg/kg/injection, schedule: Q01DX009 (ip), vehicle: saline with Tween-80
[11] = dose: 200.0 mg/kg/injection, schedule: Q01DX009 (ip), vehicle: saline with Tween-80
[12] = dose: 400.0 mg/kg/injection, schedule: Q01DX009 (ip), vehicle: saline with Tween-80
[13] = dose: 60.0 mg/kg/injection, schedule: Q01DX005 (ip), vehicle: saline with Tween-80
[14] = dose: 120.0 mg/kg/injection, schedule: Q01DX005 (ip), vehicle: saline with Tween-80
[15] = dose: 240.0 mg/kg/injection, schedule: Q01DX005 (ip), vehicle: saline with Tween-80
[16] = dose: 50.0 mg/kg/injection, schedule: Q01DX009 (ip), vehicle: saline with Tween-80

Structure (SMILES): COc1cc2c[n+]3c(c(C)c2cc1OC)-c1cc2c(cc1CC3)OCO2
- T/C (dose: 6.25 mg/kg/injection, schedule: Q04DX003 (ip), vehicle: distilled water + Tween-80): 106 % of control
- T/C (dose: 12.5 mg/kg/injection, schedule: Q04DX003 (ip), vehicle: distilled water + Tween-80): 113 % of control
- T/C (dose: 25.0 mg/kg/injection, schedule: Q04DX003 (ip), vehicle: distilled water + Tween-80): 116 % of control
- T/C (dose: 50.0 mg/kg/injection, schedule: Q04DX003 (ip), vehicle: distilled water + Tween-80): 108 % of control

Structure (SMILES): CC(=O)NC1C(Nc2ccc(S(=O)(=O)Nc3ncccn3)cc2)OC(CO)C(O)C1O (stereo not drawn)
- T/C (dose: 50.0 mg/kg/injection, schedule: Q01DX005 (ip), vehicle: saline): 106 % of control
- T/C (dose: 100.0 mg/kg/injection, schedule: Q01DX005 (ip), vehicle: saline): 99 % of control
- T/C (dose: 200.0 mg/kg/injection, schedule: Q01DX005 (ip), vehicle: saline): 101 % of control

Structure (SMILES): CCN(SSN(CC)S(=O)(=O)c1ccc(C)cc1)S(=O)(=O)c1ccc(C)cc1
- T/C [1]: 106 % of control
- T/C [2]: 107 % of control
- T/C [3]: 110 % of control

Structure (SMILES): NC(=O)Nc1ccc(Cc2ccc(NC(N)=O)cc2)cc1
- T/C [4]: 94 % of control
- T/C [5]: 94 % of control
- T/C [6]: 91 % of control

Structure (SMILES): CCCCC1/C(=C/C(=O)c2ccccc2)Nc2ccccc2N1C(=O)c1ccccc1 (stereo not drawn)
- T/C (dose: 60.0 mg/kg/injection, schedule: Q01DX005 (ip), vehicle: Klucel (hydroxypropylcellulose) (HPC)): 97 % of control
- T/C (dose: 120.0 mg/kg/injection, schedule: Q01DX005 (ip), vehicle: Klucel (hydroxypropylcellulose) (HPC)): 89 % of control
- T/C (dose: 240.0 mg/kg/injection, schedule: Q01DX005 (ip), vehicle: Klucel (hydroxypropylcellulose) (HPC)): 90 % of control

Structure (SMILES): Oc1c2ccccc2c(O)c2nc3ccccc3nc12
- T/C [7]: 100 % of control
- T/C [8]: 99 % of control
- T/C [9]: 100 % of control

Structure (SMILES): O=C(/C=C/c1ccccc1)C1CCCCC1
- T/C [4]: 107 % of control
- T/C [5]: 107 % of control
- T/C [6]: 106 % of control

Structure (SMILES): CC(=O)c1ccc2c(c1)[nH]c1ccccc12
- T/C [10]: 86 % of control
- T/C [11]: 90 % of control
- T/C [12]: 90 % of control

Structure (SMILES): CO[C@H]1/C=C/O[C@@]2(C)Oc3c(C)c(O)c4c(O)c(c(/C=N/N5CCCN(Cc6ccccc6)CC5)c(O)c4c3C2=O)NC(=O)/C(C)=C\C=C\[C@H](C)[C@H](O)C(C)[C@@H](O)C(C)[C@H](OC(C)=O)[C@@H]1C (stereo partly drawn)
- T/C (dose: 25.0 mg/kg/injection, schedule: Q01DX009 (ip), vehicle: suspension in saline): 107 % of control

Structure (SMILES): OCc1ccccc1Cn1ccnc1
- T/C [13]: 96 % of control
- T/C [14]: 93 % of control
- T/C [15]: 96 % of control

Structure (SMILES): CC(=O)OCC1OC(n2cc(C)c(=O)[nH]c2=O)CC1OC(C)=O (stereo not drawn)
- T/C [10]: 110 % of control
- T/C (dose: 100.0 mg/kg/injection, schedule: Q04DX003 (ip), vehicle: saline with Tween-80): 100 % of control
- T/C [11]: 110 % of control
- T/C (dose: 200.0 mg/kg/injection, schedule: Q04DX003 (ip), vehicle: saline with Tween-80): 100 % of control
- T/C [12]: 110 % of control
- T/C (dose: 400.0 mg/kg/injection, schedule: Q04DX003 (ip), vehicle: saline with Tween-80): 104 % of control

Structure (SMILES): COc1ccc(C(=O)CCS(=O)(=O)CCC(=O)c2ccc(OC)cc2)cc1
- T/C (dose: 100.0 mg/kg/injection, schedule: Q04DX003 (ip), vehicle: saline): 93 % of control
- T/C (dose: 200.0 mg/kg/injection, schedule: Q04DX003 (ip), vehicle: saline): 91 % of control
- T/C (dose: 400.0 mg/kg/injection, schedule: Q04DX003 (ip), vehicle: saline): 91 % of control

Structure (SMILES): CS(=O)(=O)OCCN(CCOS(C)(=O)=O)c1ccc(C=Nc2ccc3oc(=O)ccc3c2)cc1
- T/C [16]: 104 % of control
- T/C [10]: 113 % of control
- T/C (dose: 132.0 mg/kg/injection, schedule: Q04DX003 (ip), vehicle: saline with Tween-80): 150 % of control
- T/C (dose: 300.0 mg/kg/injection, schedule: Q04DX003 (ip), vehicle: saline with Tween-80): 122 % of control

Structure (SMILES): C=CCOc1cc2c(cc1C(C)c1ccccc1OC)OCO2 (stereo not drawn)
- T/C [1]: 99 % of control
- T/C [2]: 97 % of control
- T/C [3]: 104 % of control

Structure (SMILES): Cc1nnsc1-c1nnc2sc(C(F)(F)F)nn12
- T/C (dose: 50.0 mg/kg/injection, schedule: Q04DX002 (ip), vehicle: Klucel (hydroxypropylcellulose) (HPC)): 100 % of control
- T/C (dose: 100.0 mg/kg/injection, schedule: Q04DX002 (ip), vehicle: Klucel (hydroxypropylcellulose) (HPC)): 100 % of control
- T/C (dose: 200.0 mg/kg/injection, schedule: Q04DX002 (ip), vehicle: Klucel (hydroxypropylcellulose) (HPC)): 100 % of control

Structure (SMILES): CC(C(=O)O)S(=O)(=O)O (stereo not drawn)
- T/C (dose: 20.0 mg/kg/injection, schedule: Q01DX009 (ip), vehicle: saline with Tween-80): 100 % of control
- T/C (dose: 40.0 mg/kg/injection, schedule: Q01DX009 (ip), vehicle: saline with Tween-80): 96 % of control

Structure (SMILES): Cc1nc(N)c2nc(SC(C)C)c(N)nc2n1
- T/C [16]: 91 % of control
- T/C [10]: 91 % of control
- T/C [11]: 91 % of control

Structure (SMILES): Nc1nc(-c2ccccc2)nc2sc3c(c12)CCCC3
- T/C (dose: 50.0 mg/kg/injection, schedule: Q01DX005 (ip), vehicle: Klucel (hydroxypropylcellulose) (HPC)): 104 % of control
- T/C (dose: 100.0 mg/kg/injection, schedule: Q01DX005 (ip), vehicle: Klucel (hydroxypropylcellulose) (HPC)): 106 % of control
- T/C (dose: 200.0 mg/kg/injection, schedule: Q01DX005 (ip), vehicle: Klucel (hydroxypropylcellulose) (HPC)): 103 % of control

Structure (SMILES): CN(C)c1nc(=[N+](C)C)ss1
- T/C [16]: 90 % of control
- T/C [10]: 100 % of control
- T/C [11]: 113 % of control

Structure (SMILES): CC(=O)c1ccc(NN=NCCCl)cc1
- T/C (dose: 12.5 mg/kg/injection, schedule: Q01DX009 (ip), vehicle: distilled water + Tween-80): 98 % of control
- T/C (dose: 25.0 mg/kg/injection, schedule: Q01DX009 (ip), vehicle: distilled water + Tween-80): 100 % of control
- T/C (dose: 50.0 mg/kg/injection, schedule: Q01DX009 (ip), vehicle: distilled water + Tween-80): 104 % of control
- T/C (dose: 100.0 mg/kg/injection, schedule: Q01DX009 (ip), vehicle: distilled water + Tween-80): 104 % of control
- T/C (dose: 200.0 mg/kg/injection, schedule: Q01DX009 (ip), vehicle: distilled water + Tween-80): 107 % of control

Structure (SMILES): N=C1OC(C(Cl)(Cl)Cl)N(c2cccc(F)c2)C1=O (stereo not drawn)
- T/C (dose: 60.0 mg/kg/injection, schedule: Q01DX005 (ip), vehicle: Klucel + Tween-80): 100 % of control
- T/C (dose: 120.0 mg/kg/injection, schedule: Q01DX005 (ip), vehicle: Klucel + Tween-80): 100 % of control
- T/C (dose: 240.0 mg/kg/injection, schedule: Q01DX005 (ip), vehicle: Klucel + Tween-80): 89 % of control

Structure (SMILES): O=CNC(Cc1cnc[nH]1)C(=O)O (stereo not drawn)
- T/C [1]: 100 % of control
- T/C [2]: 98 % of control
- T/C [3]: 97 % of control

Structure (SMILES): O=C(O)Cc1ccc2c(c1)Cc1cccnc1O2
- T/C [4]: 108 % of control
- T/C [5]: 96 % of control
- T/C [6]: 119 % of control

Structure (SMILES): O=NNc1ccc(Sc2ccc(NN=O)nc2)cc1
- T/C (dose: 3.12 mg/kg/injection, schedule: Q01DX009 (ip), vehicle: water): 124 % of control
- T/C (dose: 6.25 mg/kg/injection, schedule: Q01DX009 (ip), vehicle: water): 123 % of control
- T/C (dose: 12.5 mg/kg/injection, schedule: Q01DX009 (ip), vehicle: water): 100 % of control

Structure (SMILES): Cc1nc2nc3n(c(=O)c2nc1C)CCCS3
- T/C [7]: 105 % of control
- T/C [8]: 103 % of control
- T/C [9]: 113 % of control

Structure (SMILES): COc1ccc(C(C)c2cc3c(cc2OCCO)OCO3)cc1 (stereo not drawn)
- T/C [1]: 105 % of control
- T/C [2]: 102 % of control
- T/C [3]: 105 % of control

Structure (SMILES): CC(=O)/C(=C\c1ccc([N+](=O)[O-])cc1)C(=O)CCN(C)C
- T/C (dose: 30.0 mg/kg/injection, schedule: Q01DX005 (ip), vehicle: saline): 118 % of control
- T/C (dose: 60.0 mg/kg/injection, schedule: Q01DX005 (ip), vehicle: saline): 121 % of control and 123 % of control

Structure (SMILES): CCOC(=O)C(C)OC1CCCCO1 (stereo not drawn)
- T/C (dose: 50.0 mg/kg/injection, schedule: Q01DX009 (ip), vehicle: other): 105 % of control
- T/C (dose: 100.0 mg/kg/injection, schedule: Q01DX009 (ip), vehicle: other): 95 % of control
- T/C (dose: 200.0 mg/kg/injection, schedule: Q01DX009 (ip), vehicle: other): 96 % of control

Structure (SMILES): N#CC(Nc1ncccn1)c1ccccc1 (stereo not drawn)
- T/C [13]: 97 % of control
- T/C [14]: 94 % of control
- T/C [15]: 91 % of control

Structure (SMILES): O=c1[nH]c(=O)c2cc3cn[nH]c3cc2[nH]1
- T/C [1]: 92 % of control
- T/C [2]: 89 % of control
- T/C [3]: 101 % of control
